Measurements published in article PMC8262356, “SLC26A6-selective inhibitor identified in a small-molecule screen blocks fluid absorption in small intestine” (JCI Insight, 2021).

Legend:
PAT1 (murine slc26a6) = biological target: T1, PAT1 (murine slc26a6) (Mus musculus, UniProt Q8CIW6); test: PAT1-mediated Cl-/I- exchange, YFP fluorescence quenching in FRT cells; format: cell-based; conditions: for effect on PAT1-mediated Cl-/I- exchange: 100 μM agonist
T1 construct: host or cells: Fischer rat thyroid (FRT) cells, lentiviral transduction (pLVX-IRES-mCherry-slc26a6), clonal line FRT-YFP-slc26a6
T1 sequence (Q8CIW6 24-758 limits assumed): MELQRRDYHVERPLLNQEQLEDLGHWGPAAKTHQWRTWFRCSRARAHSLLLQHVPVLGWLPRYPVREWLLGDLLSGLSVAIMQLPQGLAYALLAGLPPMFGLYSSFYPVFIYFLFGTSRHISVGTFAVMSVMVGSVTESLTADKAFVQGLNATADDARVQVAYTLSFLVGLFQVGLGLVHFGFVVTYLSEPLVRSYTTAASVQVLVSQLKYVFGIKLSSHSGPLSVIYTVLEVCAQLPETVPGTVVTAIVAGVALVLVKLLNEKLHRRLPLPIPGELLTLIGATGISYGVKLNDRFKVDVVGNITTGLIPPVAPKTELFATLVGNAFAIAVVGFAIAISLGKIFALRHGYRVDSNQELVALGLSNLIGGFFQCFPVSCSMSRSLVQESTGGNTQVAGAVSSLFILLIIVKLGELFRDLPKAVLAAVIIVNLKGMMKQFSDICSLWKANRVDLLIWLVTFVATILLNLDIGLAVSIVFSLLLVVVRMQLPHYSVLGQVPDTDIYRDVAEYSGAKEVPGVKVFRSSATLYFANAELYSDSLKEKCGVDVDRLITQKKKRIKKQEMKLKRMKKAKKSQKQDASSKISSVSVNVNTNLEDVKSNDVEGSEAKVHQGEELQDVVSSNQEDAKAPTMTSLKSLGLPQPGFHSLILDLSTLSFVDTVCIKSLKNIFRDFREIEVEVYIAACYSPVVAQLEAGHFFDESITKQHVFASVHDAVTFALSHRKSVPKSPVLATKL
Experimental: A small-molecule screen was developed to identify PAT1 inhibitors utilizing transfected FRT cells expressing PAT1 (murine slc26a6) together with a halide-sensing cytoplasmic YFP (Figure 1A). Adherent cells in a 96-well format were subjected to an inward gradient of I^– to drive exchange of I^– for Cl^– and consequent quenching of the YFP fluorescence signal.
A collection of approximately 50,000 diverse, drug-like synthetic small molecules (ChemDiv) was screened at a concentration of 25 μM using a Beckman Coulter BioMek FX liquid handling platform with FLUOstar OMEGA plate readers (BMG Labtech). FRT-YFP-slc26a6 cells were plated in 96-well black-walled, clear-bottom plates (Corning Life Sciences) at a density of 20,000 cells/well and cultured for 48 hours until confluent. Cells were washed twice in PBS and incubated for 10 minutes prior to assay in 100 μl PBS containing test compounds. For assay of slc26a6 function, baseline cellular fluorescence was measured for 2 seconds, after which 100 μl NaI-substituted PBS (140 mM NaCl replaced by 140 mM NaI) was added by syringe pump to drive Cl^–/I^– exchange. The initial rate of Cl^–/I^– exchange was determined by single exponential regression of the fluorescence time course. All assay plates contained wells with negative (1% DMSO) and positive (500 μM niflumic acid) controls. For structure-activity relationship studies, analogs of active compounds were purchased from ChemDiv.

[1] = tested on: mouse midjejunal closed loops; test: Closed midjejunal loop fluid absorption; format: in vivo; conditions: 10 μM luminal, 30 minutes
Experimental: For fluid absorption studies in small intestine, mice were given free access to 5% dextrose in water but not solid food for 24 hours before experiments. Closed midjejunal and ileal loops were prepared and isolated as described previously ([29]). Mice were anesthetized with isoflurane, and body temperature was maintained during surgery at 36°C–38°C using a heating pad. A small abdominal incision was made to expose small intestine for isolation of 3–4 closed small intestinal loops (jejunum or ileum, length 2–3 cm) with sutures. Loops were injected with 100 μL PBS (pH 7.4, 137 mM NaCl, 2.7 mM KCl, 8 mM Na2HPO4, 1.8 mM KH2PO4, 1 mM CaCl2, 0.5 mM MgCl2) containing 30 μM PAT1inh-B01, 10 μM DRAinh-A270, or 10 μM tenapanor (MedChemExpress) (or vehicle, 0.1% DMSO in PBS). In some experiments, 30 μM PAT1inh-B01 and 10 μM DRAinh-A270 were used together. In some experiments to rule out effects of sodium-dependent phosphate transport, the loop lumen contained HEPES-buffered saline (pH 7.4, 137 mM NaCl, 4.5 mM KCl, 10 mM HEPES, 1 mM CaCl2, 0.5 mM MgCl2). […] Intestinal loops were removed at 0 and 30 minutes (in separate mice), and loop length and weight were measured to quantify fluid absorption. […] In some experiments, loop fluid was emptied with a syringe, and pH was measured immediately using AB15 pH meter after brief centrifugation at 2000 g for 5 minutes at 4°C.

mouse ileal closed loops = test: Closed ileal loop fluid absorption; format: in vivo; conditions: 10 μM luminal, 30 minutes, PBS
Experimental: (§1) For fluid absorption studies in small intestine, mice were given free access to 5% dextrose in water but not solid food for 24 hours before experiments. Closed midjejunal and ileal loops were prepared and isolated as described previously ([29]). Mice were anesthetized with isoflurane, and body temperature was maintained during surgery at 36°C–38°C using a heating pad. A small abdominal incision was made to expose small intestine for isolation of 3–4 closed small intestinal loops (jejunum or ileum, length 2–3 cm) with sutures. Loops were injected with 100 μL PBS (pH 7.4, 137 mM NaCl, 2.7 mM KCl, 8 mM Na2HPO4, 1.8 mM KH2PO4, 1 mM CaCl2, 0.5 mM MgCl2) containing 30 μM PAT1inh-B01, 10 μM DRAinh-A270, or 10 μM tenapanor (MedChemExpress) (or vehicle, 0.1% DMSO in PBS). In some experiments, 30 μM PAT1inh-B01 and 10 μM DRAinh-A270 were used together. In some experiments to rule out effects of sodium-dependent phosphate transport, the loop lumen contained HEPES-buffered saline (pH 7.4, 137 mM NaCl, 4.5 mM KCl, 10 mM HEPES, 1 mM CaCl2, 0.5 mM MgCl2). The abdominal incision was closed with sutures, and mice were allowed to recover from anesthesia. Intestinal loops were removed at 0 and 30 minutes (in separate mice), and loop length and weight were measured to quantify fluid absorption. In parallel experiments, CF mice were used and loop studies were done as described above. In some experiments, loop fluid was emptied with a syringe, and pH was measured immediately using AB15 pH meter after brief centrifugation at 2000 g for 5 minutes at 4°C.

[2] = tested on: mouse distal colonic closed loops; test: Closed distal colonic loop fluid absorption; format: in vivo; conditions: 10 μM luminal
Experimental: For fluid absorption studies in colon, mice were given free access to 5% dextrose in water but not solid food for 48 hours. Mice were treated with 500 μL mineral oil twice a day rectally (final dose 16 h before surgery) during this period to evacuate the colon. Closed distal colonic loops (length 1.5–2 cm, 1 loop per mouse) were isolated as described previously ([7]). Loops were injected with 100 μL PBS with 30 μM PAT1inh-B01, 10 μM DRAinh-A270, or 10 μM tenapanor (or vehicle). In some experiments, 30 μM PAT1inh-B01 and 10 μM DRAinh-A270 were used together. Colonic loops were removed at 0 and 60 minutes (in separate mice), and loop length and weight were measured to quantify fluid absorption.

[3] = tested on: ileal closed loops in cystic fibrosis (CF) mice (homozygous F508del); test: Closed ileal loop fluid absorption in CF mice; format: in vivo, mouse; conditions: 10 μM luminal
Experimental: as §1

[4] = tested on: loperamide-induced constipation in mice; test: Loperamide model of constipation; format: in vivo, mouse; conditions: 10 mg/kg, oral, stool collected over 3 hours
Experimental: Wild-type CD1 mice were administered loperamide (0.3 mg/kg, intraperitoneally) in PBS containing 5% ethanol (0.1 mg/mL final concentration) to induce constipation ([9], [30]). PAT1inh-B01 and DRAinh-A270, individually or together (10 mg/kg each, in saline containing 5% DMSO and 10% Kolliphor HS 15), or vehicle control were administered by oral gavage 1 hour before loperamide. After loperamide injection mice were placed individually in metabolic cages with free access to food and water. Stool samples were collected for 3 hours, and total stool weight and number of fecal pellets were quantified. To measure stool water content, stool samples were dried at 80°C for 24 hours and water content was calculated as follows: (wet weight – dry weight)/wet weight ([9], [30]).

DRA = DRA inhibition potency comparison; conditions: vs DRAinh-A250
[5] = tested on: mouse midjejunal closed loops; design: method as in PMID 30046015; conditions: 10 μM; cited from earlier work

Row | SMILES | effect on PAT1-mediated Cl-/I- exchange (PAT1 (murine slc26a6)) | inhibition of fluid absorption (decrease in loop weight-to-length ratio) [1] | effect on ileal fluid absorption (loop weight-to-length ratio) (mouse ileal closed loops) | effect on colonic fluid absorption (loop weight-to-length ratio) [2] | effect on fluid absorption from ilea of CF mice [3] | further results
1 | Nc1nc2c(nc(Br)n2[C@@H]2O[C@@H]3COP(=O)(O)O[C@H]3[C@H]2O)c(=O)[nH]1 [8-Br-cGMP, reference compound] | did not significantly affect |  |  |  |  | 
2 | CN1Cc2c(Cl)cc(Cl)cc2[C@H](c2cccc(S(=O)(=O)NCCOCCOCCNC(=O)NCCCCNC(=O)NCCOCCOCCNS(=O)(=O)c3cccc([C@@H]4CN(C)Cc5c(Cl)cc(Cl)cc54)c3)c2)C1 [tenapanor] |  | comparable | comparable | did not inhibit | completely blocked | 
3 | Cc1c(CC(=O)O)c(=O)oc2c(C)c(OCc3cccc(I)c3)ccc12 [DRAinh-A270] |  | approximately 50% | did not inhibit | completely prevented | no effect | effect on number of pellets [4]: increased; effect on stool water content [4]: normalized; effect on stool weight [4]: increased; potency as DRA inhibitor relative to DRAinh-A250 (DRA): 5 fold
4 | O=C(O)c1cccnc1Nc1cccc(C(F)(F)F)c1 [niflumic acid, reference compound] |  |  |  |  |  | IC50 (PAT1 (murine slc26a6); FRT cells expressing PAT1 and YFP, read-out: IC50, inhibition of PAT1-mediated Cl-/I- exchange): 200 µM
5 | Cc1c(CC(=O)O)c(=O)oc2c(C)c(OCc3cccc(Br)c3)ccc12 [DRAinh-A250] |  |  |  |  |  | effect on fluid absorption in closed midjejunal loops [5]: did not significantly affect
6 | Nc1ncnc2c1ncn2[C@@H]1O[C@H](COP(=O)(O)OP(=O)(O)OP(=O)(O)O)[C@@H](O)[C@H]1O [ATP, reference compound] | did not significantly affect |  |  |  |  | 
